In US6566395B1, “Methods of treating proliferative disorders” (BioMedicines, Inc., priority 1999, dated 2003):

Experiments:
[1] = test system: SW-620 colon cancer cell line; test: In vitro tumor cell growth inhibition, MTS dye conversion assay, SW-620; format: cell-based, Human; conditions: 4-6 days
Experimental: (§1) The ability of the compounds of formula I to inhibit tumor cell growth was determined using the assay described in Cory A. H et al., Cancer Commun. 3(7):207-12, 1991.
(§2) Briefly, the assay is a […] method for determining the number of viable cells in proliferation or chemosensitivity assays.
(§3) Human tumor cell lines were propagated under sterile conditions in RPMI 1640 (CellGro) with […] fetal bovine serum (Gibco BRL), 2 mM L-glutamine, and sodium bicarbonate (complete medium). The cells were then incubated at 37° C. in HEPA-filtered Sterilcult CO2 tissue culture incubators (Forma) with 5% CO2 and 95% hymidity. Each cell line was subcultured weekly or biweekly. […]
(§4) The test compounds (100 μL), dissolved in DMSO (Sigma, cell culture grade) and diluted with complete medium, were added to 96-well plates containing attached cellular monolayers (5000 cells/well in 100 μL). […] Antiproliferative effects were assessed with the 3-(4,5-dimethylthiazol-2-yl)-5-(3-carboxymethoxyphenyl)-2-(4-sulfophenyl)-2H-tetrazolium, inner salt (MTS dye) conversion assay. […] The absorbance of formazan in each monolayer was measured at 490 nm on a Coulter microplate reader at 2 and 4 hours after the addition of the MTS solution.
(§5) Growth inhibition data are expressed as a percentage of absorbance detected in control wells and is proportional to the number of viable cells in the culture. […]

[2] = test system: OVCAR-5 ovarian cancer cell line; test: In vitro tumor cell growth inhibition, MTS dye conversion assay, OVCAR-5; format: cell-based, Human; conditions: Ovary, 4-6 days
Experimental: as §1, §2, §3, §4, §5

[3] = test system: C6 (Central Nervous System); test: In vitro tumor cell growth inhibition, MTS dye conversion assay, C6; format: cell-based, Human; conditions: Rattus norvegicus, 4-6 days, read-out: IC50 (concentration associated with 50% inhibition of cell growth)
Experimental: as §1, §2, §3, §4, §5

EKVX (Lung) = test: In vitro tumor cell growth inhibition, MTS dye conversion assay, EKVX; format: cell-based; conditions: Homo sapiens, 4-6 days, read-out: IC50 (concentration associated with 50% inhibition of cell growth)
Experimental: as §1, §2, §3, §4, §5

CCRF-CEM (Leukemia) = test: In vitro tumor cell growth inhibition, MTS dye conversion assay, CCRF-CEM; format: cell-based; conditions: Homo sapiens, 4-6 days, read-out: IC50 (concentration associated with 50% inhibition of cell growth)
Experimental: as §1, §2, §3, §4, §5

MCF7 (Breast) = test: In vitro tumor cell growth inhibition, MTS dye conversion assay, MCF7; format: cell-based; conditions: Homo sapiens, 4-6 days, read-out: IC50 (concentration associated with 50% inhibition of cell growth)
Experimental: as §1, §2, §3, §4, §5

[4] = Homo sapiens, read-out: IC50 (concentration associated with 50% inhibition of cell growth)

Row | SMILES | IC50 (concentration associated with 50% inhibition of cell growth) [1] | IC50 (concentration associated with 50% inhibition of cell growth) [2] | IC50 [1, 4] | IC50 [3] | IC50 (EKVX (Lung)) | IC50 (CCRF-CEM (Leukemia)) | IC50 [2, 4] | IC50 (MCF7 (Breast))
1 | Cc1oncc1C(=O)Nc1ccc(C(F)(F)F)cc1 [lefunomide, 5-methylisoxazole-4-carboxylic acid-(4-trifluromethyl)-anilide, reference compound] | did not achieve IC50 effects | did not achieve IC50 effects |  |  |  |  |  | 
2 | Cc1cc(NC(=O)C(C#N)C(=O)C2CC2)ccc1C(F)(F)F (centres unmarked) [laflunimus, N-(3-Methyl-4trifluoromethylphenyl) 2-Cyano-2-(cyclopropylcarbonyl)acetamide] |  |  | 6 µM | 12 µM | 14 µM | 28 µM | 13 µM | 13 µM
